According to patent publication US20230000996A1, “RAPAFUCIN DERIVATIVE COMPOUNDS AND METHODS OF USE THEREOF” (The Johns Hopkins University, priority 2019, published 2023):

Test: Nucleoside uptake, single concentration assay (Rel.Uptake); cell line indicated in each table
Format: cell-based
Conditions: 293T cells; single concentration; response relative to DMSO
Method: Nucleoside Uptake Assay (uptake). Nuceloside uptake assays were performed with using 3H-Thymidine as described in Guo et al. (2018) Nat. Chem. 11:254-63. Specific cell lines are indicated in each assay and cultured in complete growth media. Activity is scored according to the IC50 values relative to DMSO control. “Low” indicates an IC50 greater than 600 nM, “Medium” indicates an IC50 between 300 nM and 600 nM “High” indicates an IC50 less than 300 nM. “Rel.Uptake” refers to uptake activity characterization relative to a single concentration assay. “Low” indicates a response greater than 0.6 times the activity relative to DMSO, “Medium” indicates a response between 0.6 and 0.3 times the activity relative to DMSO, “High” indicates a response less than 0.3 times the activity relative to DMSO.

Row | Compound | Rel. Uptake, 293T
1 | COc1ccc(CC[C@H]2OC(=O)[C@@H]3CCCCN3C(=O)C(=O)C(C)(C)COC(=O)C=CCCN(C)C(=O)[C@H](CC(C)C)N(C)C(=O)[C@H]3CCCN3C(=O)[C@H](Cc3ccc(CC(=O)OC(C)(C)C)cc3)NC(=O)C(c3ccccc3)NC(=O)CCC(=O)Nc3cccc2c3)cc1OC (stereo partly shown) [Compound 1081] | medium
2 | COc1ccc(CC[C@H]2OC(=O)[C@@H]3CCCCN3C(=O)C(=O)C(C)(C)COC(=O)C=CCCN(C)C(=O)[C@H](CC(C)C)N(C)C(=O)[C@H]3CCCN3C(=O)[C@H](CC(=O)OC(C)(C)C)N(C)C(=O)C(c3ccccc3)NC(=O)CCC(=O)Nc3cccc2c3)cc1OC (stereo partly shown) [Compound 1066] | high

Same assay, conditions: nucleoside uptake, single concentration assay, 293T cells, response relative to DMSO

Row | Compound | Rel. Uptake, 293T
3 | COc1ccc(CC[C@H]2OC(=O)[C@@H]3CCCCN3C(=O)C(=O)C(C)(C)COC(=O)C=CCCN(C)C(=O)[C@@H]3CCCN3C(=O)[C@H](COC(C)(C)C)N(C)C(=O)[C@H](c3ccccc3)NC(=O)[C@H](C)N(C)C(=O)COc3cc(F)cc2c3)cc1OC [Compound 1596] | Low (“Low” indicates a response greater than 0.6 times the activity relative to DMSO)
4 | COc1ccc(CC[C@H]2OC(=O)[C@@H]3CCCCN3C(=O)C(=O)C(C)(C)COC(=O)C=CCCN(C)C(=O)[C@@H](Cc3ccccc3)NC(=O)CN(C)C(=O)[C@@H](Cc3ccccc3)NC(=O)[C@H](Cc3ccc(O)cc3)N(C)C(=O)COc3cncc2c3)cc1OC [Compound 1580] | low
5 | CCCCCCNC(=O)Cc1ccc(C[C@@H]2NC(=O)[C@H](c3ccccc3)NC(=O)CCC(=O)Nc3cccc(c3)[C@@H](CCc3ccc(OC)c(OC)c3)OC(=O)[C@@H]3CCCCN3C(=O)C(=O)C(C)(C)COC(=O)C=CCCN(C)C(=O)[C@H](CC(C)C)N(C)C(=O)[C@H]3CCCN3C2=O)cc1 [Compound 1591] | Med
6 | COc1ccc(CC[C@H]2OC(=O)[C@@H]3CCCCN3C(=O)C(=O)C(C)(C)CNC(=O)C=CCCN(C)C(=O)[C@H](CC(C)C)N(C)C(=O)[C@H]3CCCN3C(=O)[C@H](Cc3ccccc3)N(C)C(=O)C(c3ccccc3)NC(=O)CCC(=O)Nc3cccc2c3)cc1OC (stereo partly shown) [Compound 1555] | high
7 | COc1ccc(CC[C@H]2OC(=O)[C@@H]3CCCCN3C(=O)C(=O)C(C)(C)COC(=O)C=CCCN(C)C(=O)[C@H](CC(C)C)N(C)C(=O)[C@H]3CCCN3C(=O)[C@H](Cc3ccc(CC(=O)NCc4ccccc4)cc3)NC(=O)[C@H](c3ccccc3)NC(=O)CCC(=O)Nc3cccc2c3)cc1OC [Compound 1590] | High (“High” indicates a response less than 0.3 times the activity relative to DMSO)
8 | COc1ccc(CC[C@H]2OC(=O)[C@@H]3CCCCN3C(=O)C(=O)C(C)(C)COC(=O)C=CCCN(C)NC(c3ccccc3)C(=O)N(C)[C@@H](Cc3ccccc3)C(=O)N3CCC[C@@H]3C(=O)N(C)[C@@H](CC(C)C)C(=O)C(=O)CCOc3cccc2c3)cc1OC (stereo partly shown) [Compound 1556] | low
9 | COc1ccc(OC)c(OC)c1CC[C@H]1OC(=O)[C@@H]2CCCCN2C(=O)C(=O)C(C)(C)COC(=O)C=CCCN(C)C(=O)[C@@H](Cc2ccccc2)NC(=O)CN(C)C(=O)[C@@H](Cc2ccccc2)NC(=O)[C@H](Cc2ccc(O)cc2)N(C)C(=O)COc2cccc1c2 [Compound 1583] | low
10 | COc1ccc(CC[C@H]2OC(=O)[C@@H]3CCCCN3C(=O)C(=O)C(C)(C)COC(=O)C=CCCN(C)C(=O)[C@H](CC(C)C)N(C)C(=O)[C@H]3CCCN3C(=O)[C@H](Cc3ccc(C(=O)Nc4cccnc4)cc3)NC(=O)[C@H](c3ccccc3)NC(=O)CCC(=O)Nc3cccc2c3)cc1OC [Compound 1562] | low
11 | COc1ccc(CC[C@H]2OC(=O)[C@@H]3CN(C(=O)OCC4c5ccccc5-c5ccccc54)CCN3C(=O)C(=O)C(C)(C)COC(=O)C=CCCN(C)C(=O)[C@@H](Cc3ccccc3)NC(=O)CN(C)C(=O)[C@@H](Cc3ccccc3)NC(=O)[C@H](Cc3ccc(O)cc3)N(C)C(=O)COc3cccc2c3)cc1OC [Compound 1572] | low
12 | COc1cc(CC[C@H]2OC(=O)[C@@H]3CCCCN3C(=O)C(=O)C(C)(C)COC(=O)C=CCCN(C)C(=O)[C@@H](Cc3ccccc3)NC(=O)CN(C)C(=O)[C@@H](Cc3ccccc3)NC(=O)[C@H](Cc3ccc(O)cc3)N(C)C(=O)COc3cccc2c3)c(OC)c(OC)c1 [Compound 1582] | low
13 | COc1ccc(CC[C@H]2OC(=O)[C@@H]3CCCCN3C(=O)C(=O)C(C)(C)COC(=O)C=CCCN(C)C(=O)[C@H](CC(C)C)N(C)C(=O)[C@H]3CCCN3C(=O)[C@H](Cc3ccc(O)cc3)NC(=O)C(c3ccccc3)NC(=O)CCC(=O)Nc3cccc2c3)cc1OC (stereo partly shown) [Compound 1522] | high
14 | CCCC[C@H]1C(=O)N[C@@H](Cc2ccc3ccccc3c2)C(=O)N(C)[C@@H](COC(C)(C)C)C(=O)NCC(=O)N(C)CCC=CC(=O)OCC(C)(C)C(=O)C(=O)N2CCCC[C@H]2C(=O)O[C@H](CCc2ccc(OC)c(OC)c2)c2cncc(c2)OCC(=O)N1C [Compound 1565] | low
15 | COc1ccc(CC[C@H]2OC(=O)[C@@H]3CCCCN3C(=O)C(=O)C(C)(C)COC(=O)C=CCCN(C)C(=O)[C@H](CC(C)C)N(C)C(=O)[C@H]3CCCN3C(=O)[C@H](Cc3ccc(CNC(=O)Cc4ccccc4)cc3)NC(=O)[C@H](c3ccccc3)NC(=O)CCC(=O)Nc3cccc2c3)cc1OC [Compound 1586] | Med
16 | CCCC[C@H]1C(=O)N[C@@H](Cc2ccc3ccccc3c2)C(=O)N(C)[C@@H](COC(C)(C)C)C(=O)NCC(=O)N(C)CCC=CC(=O)OCC(C)(C)C(=O)C(=O)N2CCCC[C@H]2C(=O)O[C@H](CCc2ccc(OC)c(O)c2)c2cccc(c2)OCC(=O)N1C [Compound 1564] | high
17 | COc1cc(CC[C@H]2OC(=O)[C@@H]3CCCCN3C(=O)C(=O)C(C)(C)COC(=O)C=CCCN(C)C(=O)[C@@H](Cc3ccccc3)NC(=O)CN(C)C(=O)[C@@H](Cc3ccccc3)NC(=O)[C@H](Cc3ccc(O)cc3)N(C)C(=O)COc3cccc2c3)cc(F)c1OC [Compound 1569] | low
18 | C=C1NCC(=O)N(C)CC/C=C\C(=O)OCC(C)(C)C(=O)C(=O)N2CCCC[C@H]2C(=O)O[C@H](CCc2ccc(OC)c(OC)c2)c2cccc(c2)NC(=O)CCC(=O)N(C)[C@@H](CC(C)C)C(=O)N[C@H](Cc2ccccc2)C(=O)N(C)[C@H]1[C@@H](C)CC [Compound 1592] | Low (“Low” indicates a response greater than 0.6 times the activity relative to DMSO)
19 | COc1ccc(CC[C@H]2OC(=O)[C@@H]3CCCCN3C(=O)C(=O)C(C)(C)COC(=O)C=CCCN(C)C(=O)[C@@H](Cc3ccccc3)NC(=O)CN(C)C(=O)[C@@H](Cc3ccccc3)NC(=O)[C@H](Cc3ccc(O)cc3)N(C)C(=O)COc3cccc2c3)c(F)c1OC [Compound 1571] | low
20 | COc1cc(F)c(CC[C@H]2OC(=O)[C@@H]3CCCCN3C(=O)C(=O)C(C)(C)COC(=O)C=CCCN(C)C(=O)[C@@H](Cc3ccccc3)NC(=O)CN(C)C(=O)[C@@H](Cc3ccccc3)NC(=O)[C@H](Cc3ccc(O)cc3)N(C)C(=O)COc3cccc2c3)cc1OC [Compound 1570] | medium
21 | COc1ccc(CC[C@H]2OC(=O)[C@@H]3CCCCN3C(=O)C(=O)C(C)(C)COC(=O)C=CCCN(C)C(=O)[C@@H]3CCCN3C(=O)[C@H](COC(C)(C)C)N(C)C(=O)[C@@H](c3ccccc3)NC(=O)[C@H](C)N(C)C(=O)COc3cc(F)cc2c3)cc1OC [Compound 1595] | Low (“Low” indicates a response greater than 0.6 times the activity relative to DMSO)
22 | COc1ccc(CC[C@H]2OC(=O)[C@@H]3CCCCN3C(=O)C(=O)C(C)(C)COC(=O)C=CCCN(C)C(=O)[C@H](CC(C)C)N(C)C(=O)[C@H]3CCCN3C(=O)[C@H](Cc3ccc(CNC(=O)CN(C)C)cc3)NC(=O)[C@H](c3ccccc3)NC(=O)CCC(=O)Nc3cccc2c3)cc1OC [Compound 1587] | Low (“Low” indicates a response greater than 0.6 times the activity relative to DMSO)
23 | COc1ccc(CC[C@H]2OC(=O)[C@@H]3CCCCN3C(=O)C(=O)C(C)(C)COC(=O)C=CCCN(C)C(=O)[C@H](CC(C)C)N(C)C(=O)[C@H]3CCCN3C(=O)[C@H](Cc3ccc(C(=O)NCCO)cc3)NC(=O)[C@H](c3ccccc3)NC(=O)CCC(=O)Nc3cccc2c3)cc1OC [Compound 1558] | high
24 | COc1cc(OC)c(OC)cc1CC[C@H]1OC(=O)[C@@H]2CCCCN2C(=O)C(=O)C(C)(C)COC(=O)C=CCCN(C)C(=O)[C@@H](Cc2ccccc2)NC(=O)CN(C)C(=O)[C@@H](Cc2ccccc2)NC(=O)[C@H](Cc2ccc(O)cc2)N(C)C(=O)COc2cccc1c2 [Compound 1581] | medium
25 | COc1cc(CC[C@H]2OC(=O)[C@@H]3CCCCN3C(=O)C(=O)C(C)(C)COC(=O)C=CCCN(C)C(=O)[C@@H](Cc3ccccc3)NC(=O)CN(C)C(=O)[C@@H](Cc3ccccc3)NC(=O)[C@H](Cc3ccc(O)cc3)N(C)C(=O)COc3cccc2c3)cc(OC)c1OC [Compound 1566] | medium
26 | COc1ccc(CC[C@H]2OC(=O)[C@@H]3CCCCN3C(=O)C(=O)C(C)(C)COC(=O)C=CCCN(C)C(=O)[C@@H](Cc3ccccc3)NC(=O)CN(C)C(=O)[C@@H](Cc3ccccc3)NC(=O)[C@H](Cc3ccc(O)cc3)N(C)C(=O)COc3cccc2c3)c(OC)c1OC [Compound 1577] | medium
27 | COc1ccc(CC[C@H]2OC(=O)[C@@H]3CCCCN3C(=O)C(=O)C(C)(C)COC(=O)C=CCCN(C)C(=O)[C@@H](Cc3ccccc3)NC(=O)CN(C)C(=O)[C@@H](Cc3ccccc3)NC(=O)[C@H](Cc3ccc(O)cc3)N(C)C(=O)COc3cc2ccc3F)cc1OC [Compound 1578] | low
28 | COc1ccc(CC[C@H]2OC(=O)[C@@H]3CCCCN3C(=O)C(=O)C(C)(C)COC(=O)C=CCCN(C)C(=O)[C@@H](Cc3ccccc3)NC(=O)CN(C)C(=O)[C@@H](Cc3ccccc3)NC(=O)[C@H](Cc3ccc(O)cc3)N(C)C(=O)COc3cccc2c3)c(O)c1OC [Compound 1584] | low
